Common to all, as to experiment: microbe, parasite or virus in culture
Holding throughout (type): cell-based, Mycobacterium tuberculosis

For assay [1], the system named is Mtb strain resistant to P-aminosalicyclic acid ATCC 35821. Particulars: Mycobacterium tuberculosis, ATCC35821, read-out: Activity against Mtb strain resistant to P-aminosalicyclic acid ATCC 35821.
Assay [2] concerns Mtb strain resistant to Streptomycin ATCC 35820. To be noted: Mycobacterium tuberculosis, ATCC35820, read-out: Activity against Mtb strain resistant to Streptomycin ATCC 35820.
The test system of assay [3] is Mtb strain resistant to Ethambutol ATCC 35837. Particulars: Mycobacterium tuberculosis, ATCC35837, read-out: Activity against Mtb strain resistant to Ethambutol ATCC 35837.
For assay [4], the system named is Mtb strain resistant to Ethionamide ATCC 35830. Particulars: Mycobacterium tuberculosis, ATCC35830, read-out: Activity against Mtb strain resistant to Ethionamide ATCC 35830.
The test system of assay [5] is Mtb strain resistant to Isoniazid ATCC 35822. Particulars: Mycobacterium tuberculosis, ATCC35822, read-out: Activity against Mtb strain resistant to Isoniazid ATCC 35822.
Assay [6] concerns Mtb strain resistant to Kanamycin ATCC 35827. Particulars: Mycobacterium tuberculosis, ATCC35827, read-out: Activity against Mtb strain resistant to Kanamycin ATCC 35827.

Each structure is given as a SMILES string. In brackets after ≈: the same amount, converted by molar mass.

Turning to `CCN(CC)c1n[n+]([O-])c2ccccc2[n+]1[O-]` [SRI-009728], the MIC in assay [1] was 0.31 µg/mL (≈ 1.32 µM); in assay [2], 0.31 µg/mL (≈ 1.32 µM); in assay [3], 0.31 µg/mL (≈ 1.32 µM); in assay [4], 0.16 µg/mL (≈ 0.683 µM); in assay [5], 0.31 µg/mL (≈ 1.32 µM); in assay [6], 0.31 µg/mL (≈ 1.32 µM).

Turning to `CCNc1n[n+]([O-])c2cc3c(cc2[n+]1[O-])CCC3` [SRI-012286], the MIC in assay [1] is 1.25 µg/mL (≈ 5.08 µM); in assay [2] it was 0.63 µg/mL (≈ 2.56 µM); in assay [3], 1.25 µg/mL (≈ 5.08 µM); in assay [4], 1.25 µg/mL (≈ 5.08 µM); in assay [5] it was 2.5 µg/mL (≈ 10.2 µM); in assay [6] it was 1.25 µg/mL (≈ 5.08 µM).

As to `[O-][n+]1nc(NC2CCC2)[n+]([O-])c2cc3c(cc21)CCC3` [SRI-012403], the MIC in assay [5] and in assay [6] was 1.25 µg/mL (≈ 4.59 µM) throughout.

With `[O-][n+]1nc(N2CCCC2)[n+]([O-])c2ccccc21` [SRI-012495], the MIC in assay [5] and in assay [6] was 0.31 µg/mL (≈ 1.33 µM) each time.

In the case of `CCNc1n[n+]([O-])c2cc3c(cc2[n+]1[O-])CCCC3` [SRI-012496], the MIC in assay [1], in assay [2], in assay [3], in assay [4], in assay [5] and in assay [6] was 1.25 µg/mL (≈ 4.8 µM) throughout.

`[O-][n+]1nc(NC2CCC2)[n+]([O-])c2cc3c(cc21)CCCC3` [SRI-012497]: the MIC stood at 1.25 µg/mL (≈ 4.37 µM) in assay [1]; 1.25 µg/mL (≈ 4.37 µM) in assay [2]; 2.5 µg/mL (≈ 8.73 µM) in assay [3]; 1.25 µg/mL (≈ 4.37 µM) in assay [4]; 2.5 µg/mL (≈ 8.73 µM) in assay [5]; 2.5 µg/mL (≈ 8.73 µM) in assay [6].

On to `[O-][n+]1nc(NC2CC3CCC2C3)[n+]([O-])c2cc3c(cc21)CCCC3` (centres unmarked) [SRI-012498], for which the MIC in assay [1] amounted to 1.25 µg/mL (≈ 3.83 µM); in assay [2], 1.25 µg/mL (≈ 3.83 µM); in assay [3] it was 1.25 µg/mL (≈ 3.83 µM); in assay [4] it was 1.25 µg/mL (≈ 3.83 µM); in assay [5] it was 2.5 µg/mL (≈ 7.66 µM); in assay [6], 1.25 µg/mL (≈ 3.83 µM).

On to `[O-][n+]1nc(N2CCCC2)[n+]([O-])c2cc3c(cc21)CCC3` [SRI-012530], for which the MIC came out at 0.31 µg/mL (≈ 1.14 µM) in assay [1]; 0.16 µg/mL (≈ 0.588 µM) in assay [2]; 0.62 µg/mL (≈ 2.28 µM) in assay [3]; 0.62 µg/mL (≈ 2.28 µM) in assay [4]; 0.31 µg/mL (≈ 1.14 µM) in assay [5]; 0.63 µg/mL (≈ 2.31 µM) in assay [6].

Take `[O-][n+]1nc(N2CCCCC2)[n+]([O-])c2cc3c(cc21)CCC3` [SRI-012562]: the MIC in assay [5] is 0.15 µg/mL (≈ 0.524 µM); in assay [6], 0.31 µg/mL (≈ 1.08 µM).

As for `CN(C)c1n[n+]([O-])c2cc3c(cc2[n+]1[O-])CCC3` [SRI-012563], the MIC is under 0.07 µg/mL in assay [5] and 0.31 µg/mL (≈ 1.26 µM) in assay [6].

As to `CN(Cc1ccccc1)c1n[n+]([O-])c2cc3c(cc2[n+]1[O-])CCC3` [SRI-012564], the figures for the MIC in assay [5] and in assay [6] were under 0.07 µg/mL and 0.15 µg/mL (≈ 0.465 µM), respectively.

In the case of `CN(CCc1ccccc1)c1n[n+]([O-])c2cc3c(cc2[n+]1[O-])CCC3` [SRI-012565], the MIC in assay [5] worked out at 0.07 µg/mL (≈ 0.208 µM); in assay [6] it was 0.15 µg/mL (≈ 0.446 µM).

`O=S1(=O)CCN(c2n[n+]([O-])c3cc4c(cc3[n+]2[O-])CCC4)CC1` [SRI-012566]: the MIC in assay [1] worked out at 2.5 µg/mL (≈ 7.43 µM); in assay [2] it was 2.5 µg/mL (≈ 7.43 µM); in assay [3], 2.5 µg/mL (≈ 7.43 µM); in assay [4], 0.62 µg/mL (≈ 1.84 µM); in assay [5], 2.5 µg/mL (≈ 7.43 µM); in assay [6], 2.5 µg/mL (≈ 7.43 µM).

Consider `CC1CCCCN1c1n[n+]([O-])c2cc3c(cc2[n+]1[O-])CCC3` (centres unmarked) [SRI-012567], for which the MIC stood at 0.31 µg/mL (≈ 1.03 µM) in assay [5] and 0.62 µg/mL (≈ 2.06 µM) in assay [6].

Values taken from patent US9663478B2, “Benzotriazine oxides as drugs targeting Mycobacterium tuberculosis” (priority 2011, dated 2017).
